Measurements reported in PMC9147060, “Elucidating Pathway and Anesthetic Mechanism of Action of Clove Oil Nanoformulations in Fish” (Pharmaceutics, 2022).

Biological target: T1, GABAA receptor (γ-aminobutyric acid subtype A receptor)
T1 construct: gene Gabra1; native receptor mixture in cerebral cortical synaptosomal membranes of adult male rats
Assay: [3H]muscimol binding to rat cortical membranes, filtration
Conditions: enhancement of 5 nM [3H]muscimol binding; 50 mM Tris-HCl pH 7.4, 0-4 °C, 1 h; in DMSO; positive modulation

C=CCc1ccc(O)c(OC)c1 [eugenol]
EC50: 1250 µM
